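Results reflect a 48-hour exposure of cells in 96-well plates to compound at five concentrations. TGI: total growth inhibition.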
Tests used:
Assay in all cases: growth of human tumour cells (NCI), 48 h
HCC-2998 colon = system: HCC-2998 colon
NCI/ADR-RES ovarian = system: NCI/ADR-RES ovarian
KM12 colon = system: KM12 colon
SK-MEL-5 melanoma = system: SK-MEL-5 melanoma
MOLT-4 leukemia = system: MOLT-4 leukemia
OVCAR-3 ovarian = system: OVCAR-3 ovarian
COLO 205 colon = system: COLO 205 colon
SF-539 CNS = system: SF-539 CNS
SK-MEL-2 melanoma = system: SK-MEL-2 melanoma
SN12C renal = system: SN12C renal
HT29 colon = system: HT29 colon

Row | Compound | TGI (HCC-2998 colon) | TGI (NCI/ADR-RES ovarian) | TGI (KM12 colon) | TGI (SK-MEL-5 melanoma) | TGI (MOLT-4 leukemia) | TGI (OVCAR-3 ovarian) | TGI (COLO 205 colon) | TGI (SF-539 CNS) | TGI (SK-MEL-2 melanoma) | TGI (SN12C renal) | TGI (HT29 colon)
1 | C#CCn1c(=O)c2cc(OC)c(OC)cc2n(CC#C)c1=O | > 10 µM | > 10 µM | > 10 µM | > 10 µM | > 10 µM | > 10 µM | > 10 µM | > 10 µM | > 10 µM | > 10 µM | > 10 µM
2 | C=c1c2ccccc2oc2nc3[nH]c(N)c(C#N)c(N)c3c(=N)c12 | 66.7 µM | > 100 µM | 56.4 µM | 57.2 µM | 89.2 µM | 43.3 µM | > 100 µM | 71.5 µM | 37.8 µM | > 100 µM | 80.8 µM
3 | COc1ccc2cc(CNCCOCCOCCNCc3ccc4cc(OC)ccc4c3)ccc2c1 | 0.319 µM | 3.02 µM | 2.27 µM | 1.81 µM | 2.44 µM | 3.54 µM | 0.346 µM | 3.03 µM | 3.18 µM | 3.85 µM | 0.394 µM
4 | O=C(NC12CC3CC(CC(C3)C1)C2)n1cnc2c(Cl)ncnc21 | 38.9 µM | > 100 µM | > 100 µM | 53.5 µM | 52.2 µM | 51.3 µM | 32.6 µM | 81.7 µM | 80.7 µM | > 100 µM | 70.3 µM
5 | O=C(O)C(=Cc1ccc(-c2ccc([N+](=O)[O-])cc2)o1)C(=O)O | > 100 µM | > 100 µM | > 100 µM | > 100 µM | > 100 µM | > 100 µM | > 100 µM | > 100 µM | > 100 µM | > 100 µM | > 100 µM
6 | c1ccc(C(OCCN2CC3CCC(C2)N3)c2ccccc2)cc1 | 32.3 µM | > 100 µM | > 100 µM | 36.1 µM | > 100 µM | > 100 µM | 42.2 µM | > 100 µM | > 100 µM | > 100 µM | > 100 µM
7 | COc1cc2c(cc1OC)C/C(=N\O)c1cc(OC)c(OC)cc1/C=C\2 | 31.8 µM | 89.3 µM | 95.8 µM | 8.26 µM | > 85 µM | 17.3 µM | 28.7 µM | 18 µM | 44.6 µM | > 100 µM | 15.4 µM
8 | COc1cc([C@@H]2c3cc4c(cc3[C@H](OC3OC5COC(C(C)C)OC5C(O)C3O)C3COC(=O)[C@@H]32)OCO4)cc(OC)c1OC (some centres not stated) | 21.7 µM | > 79.5 µM | 18 µM | 20.4 µM | > 68.4 µM | 8.55 µM | 14.6 µM | > 25.9 µM | 25.4 µM | > 100 µM | 7.11 µM
9 | CCN(CC)CCNC(=O)C1COc2ccc(-c3cc(=O)c4ccccc4o3)cc2O1 (configuration not stated) | 35.4 µM | 45.8 µM | 35.4 µM | 35.9 µM | 57.9 µM | 41.4 µM | 34 µM | 30 µM | 38 µM | 55.1 µM | 34.6 µM
10 | CC(=O)O[C@H]1C(=O)[C@@]2(C)C(C(OC(=O)c3ccccc3)[C@]3(O)CC(OC(=O)C(O)C(NC(=O)c4cccc(Cl)c4)c4ccccc4)C(C)=C1C3(C)C)[C@]1(OC(C)=O)CO[C@@H]1C[C@@H]2O (some centres not stated) | 4.1 µM | > 10 µM | > 10 µM | 6.22 µM | > 10 µM | > 10 µM | 4.58 µM | 2.19 µM | > 10 µM | > 10 µM | > 10 µM
11 | OC[C@@H](O)[C@H](O)[C@H](O)[C@@H](O)C1SCCCS1 | > 100 µM | > 100 µM | > 100 µM | > 100 µM | > 100 µM | > 100 µM | > 100 µM | > 100 µM | > 100 µM | > 100 µM | > 100 µM
12 | O=C1/C(=C/Cc2ccco2)N=C(c2ccccc2)N1c1nc2ccc(Sc3ccccc3)cc2[nH]1 | 40.6 µM | 72.4 µM | 45.5 µM | 31.8 µM | 92.9 µM | 84.8 µM | 36 µM | > 100 µM | 34.8 µM | 34.9 µM | 73.6 µM
13 | Nc1nc(Cl)cc(Oc2ccc(Cl)cc2)n1 | > 100 µM | > 100 µM | > 100 µM | > 100 µM | > 100 µM | > 100 µM | > 100 µM | > 100 µM | > 100 µM | > 100 µM | > 100 µM
14 | COC(=O)C1=C(C(=O)OC)SC2(S1)C(C(=O)OC)=C(C(=O)OC)Sc1c2ssc1=O | 2.72 µM | 2.82 µM | 15.4 µM | 2.59 µM | 0.843 µM | 2.38 µM | 2.08 µM | 3.35 µM | 4.1 µM | 2.96 µM | 1.78 µM
15 | CCN1CC2(CO)CCC(OC)C34C5CC6C(OC)CC(O)(C5C6OC)C(O)(C(OC)C23)C14 (configuration not stated) | > 375 µM | > 375 µM | > 375 µM | > 211 µM | > 375 µM | > 174 µM | > 375 µM | > 375 µM | > 63.9 µM | > 375 µM | > 375 µM
16 | CN(CCCNC(=O)c1[nH]nc2c1ccc1ccccc12)CCCNC(=O)c1[nH]nc2c1ccc1ccccc12 | 4.13 µM | > 100 µM | 39.7 µM | 17 µM | 26.2 µM | 29 µM | 10.9 µM | 24 µM | 23.6 µM | 30.1 µM | 34.6 µM
17 | Cc1cccc(N=Nc2ccc(O)c(CN(C)C)c2)c1 | 30.3 µM | 72.6 µM | 34.4 µM | 27.5 µM | 91.6 µM | 52.7 µM | 28.6 µM | 41.6 µM | 47.6 µM | > 100 µM | 53.8 µM
